In patent US10219513B2, “Safening 4-amino-3-chloro-6-(4-chloro-2-fluoro-3-methoxyphenyl)-5-fluoropyridine-2-carboxylic acid compositions in Brassica species and methods of use thereof” (Dow AgroSciences LLC, priority 2016, dated 2019):

Assays:
[1] = system: Brassica napus var. napobrassica (rutabaga, BRSNA); assay: Greenhouse postemergence application, visual injury after 20-22 d, BRSNA; conditions: for % Visual Injury Obs / Obs % visual injury: BRSNA
Protocol: (§1) Seeds of the desired test plant species were planted in Sun Gro MetroMix® 306 planting mixture, which typically has a pH of 6.0 to 6.8 and an organic matter content of about 30 percent, in plastic pots with a surface area of 103.2 square centimeters (cm^2). […] The plants were grown for 7-36 days (d) in a greenhouse with an approximate 14-hour (h) photoperiod which was maintained at about 23° C. during the day and 22° C. during the night. Nutrients and water were added on a regular basis and supplemental lighting was provided with overhead metal halide 1000-Watt lamps as necessary. The plants were employed for testing when they reached the second or third true leaf stage.
(§2) An aliquot of formulated benzyl 4-amino-3-chloro-6-(4-chloro-2-fluoro-3-methoxyphenyl)-5-fluoropyridine-2-carboxylate (florpyrauxifen-benzyl; 300 grams active ingredient per liter (g ai/L) suspension concentrate (SC)) was placed in a 25 mL glass vial and diluted in a volume of 1.25% (v/v) aqueous Agri-dex crop oil concentrated to obtain a stock solution. […] The concentrated stock solutions were diluted with an aqueous mixture of 1.25% v/v of aqueous Agri-dex crop oil concentrate to provide the appropriate application rates. Compound requirements are based upon a 12 milliliter (mL) application volume at a rate of 187 liters per hectare (L/ha). Stock solutions of the formulated materials were prepared following the same procedure. Spray solutions of the compound mixtures were prepared by adding the stock solutions to the appropriate amount of dilution solution to form a 12 mL spray solution. Formulated compounds were applied to the plant material with an overhead Mandel track sprayer equipped with 8002E nozzles calibrated to deliver 187 L/ha over an application area of 0.503 square meters (m^2) at a spray height of 18 inches (43 centimeters (cm)) above average plant canopy. Control plants were sprayed in the same manner with the solvent blank.
(§3) The treated plants and control plants were placed in a greenhouse as described above and watered by sub-irrigation to prevent wash-off of the test compounds. After 20-22 d, the condition of the test plants as compared with that of the control plants was determined visually and scored on a scale of 0 to 100 percent where 0 corresponds to no injury and 100 corresponds to complete kill. Colby's equation was used to determine the herbicidal effects expected from the mixtures.
(§4) Benzyl 4-amino-3-chloro-6-(4-chloro-2-fluoro-3-methoxyphenyl)-5-fluoropyridine-2-carboxylate (florpyrauxifen-benzyl, 300 g ai/L SC) was combined in two-, three-, and four-way mixtures with one or more of the following: clopyralid-olamine (as Lontrel™ 35A Herbicidal Concentrate), quinclorac (as Facet 75DF), isoxadifen-ethyl (100 g/L SC), cloquintocet-mexyl (120 g/L EC) or mefenpyr-diethyl (as mefenpyr-diethyl 15WP). The mixtures were applied to kale/Chinese kale (Brassica alboglabra, BRSAG), Juncea canola or brown mustard (Brassica juncea, BRSJU), rutabaga (Brassica napus var. napobrassica, BRSNA), all varieties of canola and oilseed rape (Brassica napus, BRSNN), Nexera™ canola (Brassica napus, BRSNN-NEX), winter oilseed rape (Brassica napus, BRSNW), Roundup Ready® canola (Brassica napus, RR-BRSNN), and turnip or Polish canola (Brassica rapa, BRSRR), and the phytotoxicity of the compositions was measured.
(§5) Colby's equation was used to determine the herbicidal effects expected from the mixtures evaluated in the described trials (Colby, S. R. Calculation of the synergistic and antagonistic response of herbicide combinations. Weeds 1967, 15, 20-22.).
(§6) The following equation was used to calculate the expected activity of mixtures containing two active ingredients, A and B: Expected=A+B−(A×B/100) • A=observed efficacy of active ingredient A at the same concentration as used in the mixture; • B=observed efficacy of active ingredient B at the same concentration as used in the mixture.

[2] = system: Brassica alboglabra (kale/Chinese kale, BRSAG); assay: Greenhouse postemergence application, visual injury after 20-22 d, BRSAG; conditions: for % Visual Injury Obs / Obs % visual injury: BRSAG
Protocol: as §1, §2, §3, §4, §5, §6

[3] = system: Brassica napus (Nexera canola, BRSNN-NEX); assay: Greenhouse postemergence application, visual injury after 20-22 d, BRSNN-NEX; conditions: for % Visual Injury Obs / Obs % visual injury: BRSNN-NEX
Protocol: as §1, §2, §3, §4, §5, §6

[4] = postemergence application, greenhouse, application rate (g ai/ha) varies

O=C(O)c1c(Cl)ccc2cc(Cl)cnc12 [Quinclorac, 3,7-dichloro-8-quinolinecarboxylic acid]
0%: % Visual Injury Obs ([1]; 50 g ai/ha) | % Visual Injury Obs ([1]; 100 g ai/ha) | % Visual Injury Obs ([1]; 200 g ai/ha) | Obs % visual injury ([1]; partner alone 50 g ai/ha) | Obs % visual injury ([1]; partner alone 100 g ai/ha) | Obs % visual injury ([1]; partner alone 200 g ai/ha) | % Visual Injury BRSNA Obs [1, 4] | % Visual Injury BRSNA Obs ([1]; quinclorac 50 g ai/ha alone) | % Visual Injury BRSNA Obs ([1]; quinclorac 100 g ai/ha alone) | % Visual Injury BRSNA Obs ([1]; quinclorac 200 g ai/ha alone) | % Visual Injury Obs ([2]; 50 g ai/ha) | % Visual Injury Obs ([2]; 100 g ai/ha) | % Visual Injury Obs ([2]; 200 g ai/ha) | Obs % visual injury ([2]; partner alone 50 g ai/ha) | Obs % visual injury ([2]; partner alone 100 g ai/ha) | Obs % visual injury ([2]; partner alone 200 g ai/ha) | % Visual Injury BRSAG Obs [2, 4] | % Visual Injury BRSAG Obs ([2]; quinclorac 50 g ai/ha alone) | % Visual Injury BRSAG Obs ([2]; quinclorac 100 g ai/ha alone) | % Visual Injury BRSAG Obs ([2]; quinclorac 200 g ai/ha alone) | % Visual Injury Obs ([3]; 50 g ai/ha) | % Visual Injury Obs ([3]; 100 g ai/ha) | % Visual Injury Obs ([3]; 200 g ai/ha) | Obs % visual injury ([3]; partner alone 50 g ai/ha) | Obs % visual injury ([3]; partner alone 100 g ai/ha) | Obs % visual injury ([3]; partner alone 200 g ai/ha) | % Visual Injury BRSNN-NEX Obs [3, 4] | % Visual Injury BRSNN-NEX Obs ([3]; quinclorac 50 g ai/ha alone) | % Visual Injury BRSNN-NEX Obs ([3]; quinclorac 100 g ai/ha alone) | % Visual Injury BRSNN-NEX Obs ([3]; quinclorac 200 g ai/ha alone)
